Experimental data reported in patent US20070293467A1, “Demethyl-Cantharidin Platinum Complex Isomers and Their Use” (priority 2004, published 2007).
Where two headings read alike, the source gives them in different places.

Legend:
Assay type in all cases: cell-based
SK-Hep = test: MTT tetrazolium microculture growth inhibition, SK-Hep; conditions: for IC50: SK-Hep, 72 h exposure, MTT, read-out: Average growth-inhibitory activity (IC50); for in vitro antitumor activity against SK-Hep: in words, from Table 5
Procedure: (§1) DMC platinum complexes, together with controls cisplatin, carboplatin, and oxaliplatin were screened for an in vitro antitumor activity against various tumorous cell lines, using a tetrazolium microculture assay.
(§2) Drugs: Drugs to be tested were dissolved in a complete medium at twice the highest concentration to be used, followed by filtration (0.22 μm) sterilization. A series of log dilutions were made from each drug solution using complete medium. All drug solutions were prepared 10 minutes before addition to cells.
(§3) In vitro drug exposure: For each drug to be tested, trypsinized cells were adjusted to a concentration of 2×10^5 cells/ml in a complete medium, and 0.1 ml of the cell suspension was added to each of 24 wells in a 96-well microculture plate. The plate was then incubated at a standard condition for 24 hours in order to allow the cells to be adhered to the bottom of the well and restart exponential growth. To each well of the control culture and drug/concentration combinations, 0.1 ml of the complete medium and drug solution were added, respectively. Each drug/concentration combination consisting of four replicates while the control culture consisting of 12 replicates. The twelve replicates of a blank control containing 0.2 ml of the complete medium were set aside to account for the background. The cultures were incubated for additional 72 hours. All tests were repeated at least 3 times on different occasions.
(§4) MTT assay: The MTT (tetrazolium) assay was used to determine the growth-inhibitory effects of different drugs. A 5 mg/ml solution of MTT (3-(4,5-dimethylthiazol-2-yl)-2,5-diphenyltetrazolium bromide) was prepared in phosphate buffer saline (pH 7.4), sterilized by filtration (0.22 μm) and stored at −20° C. To each well, 0.02 ml of an MTT solution was added, and the plate was incubated for 4 hours under standard conditions. The medium in each well was then removed, and 0.1 ml of DMSO (dimethylsulfoxide) was added to each well to solubilize the colored dye produced from the metabolic reduction of MTT. The amount of reduced MTT was measured by spectrophotometric means (570 nm).
(§5) Data analysis: A mean value of OD was determined for all of the 12 control wells. For each concentration of each drug, A mean OD of the 4 wells was determined. All the mean ODs were subtracted from the blank to account for the background. The “Percent of Control” values were determined and plotted.

SK-Hep resistance = test: MTT tetrazolium microculture growth inhibition, SK-Hep resistance; conditions: for IC50: SK-Hep resistance, 72 h exposure, MTT, read-out: Average growth-inhibitory activity (IC50); for resistance of SK-Hep to the drug: SK-Hep resistance vs SK-Hep, from IC50 of Table 5
Procedure: as §1, §2, §3, §4, §5

Huh-7 = test: MTT tetrazolium microculture growth inhibition, Huh-7; conditions: for IC50: Huh-7, 72 h exposure, MTT, read-out: Average growth-inhibitory activity (IC50); for in vitro antitumor activity against Huh-7 cell: in words, from Table 5
Procedure: as §1, §2, §3, §4, §5

Huh-7 resistance = test: MTT tetrazolium microculture growth inhibition, Huh-7 resistance; conditions: for cross-resistance of Huh-7: Huh-7 resistance vs Huh-7, within experimental errors; for IC50: Huh-7 resistance, 72 h exposure, MTT, read-out: Average growth-inhibitory activity (IC50); for resistance of Huh-7 to the drug: Huh-7 resistance vs Huh-7, from IC50 of Table 5
Procedure: as §1, §2, §3, §4, §5

[1] = tested on: liver cancer cell line PLC/5; test: MTT tetrazolium microculture growth inhibition, PLC/5; conditions: for IC50: PLC/5, 72 h exposure, MTT, read-out: Average growth-inhibitory activity (IC50); for activity against liver cancer cell line PLC/5: in words, from Table 5
Procedure: as §1, §2, §3, §4, §5

[2] = tested on: colorectal cancer cell line Colo320; test: MTT tetrazolium microculture growth inhibition, Colo320; conditions: for IC50: Colo320, 72 h exposure, MTT, read-out: Average growth-inhibitory activity (IC50); for activity against colorectal cancer cell line Colo320: in words, from Table 5
Procedure: as §1, §2, §3, §4, §5

L1210 = test: MTT tetrazolium microculture growth inhibition, L1210; conditions: 72 h exposure, read-out: Average growth-inhibitory activity (IC50)
Procedure: as §1, §2, §3, §4, §5

L1210 resistance = test: MTT tetrazolium microculture growth inhibition, L1210 resistance; conditions: for resistance / cross-resistance of L1210: L1210 resistance vs L1210; for IC50: L1210 resistance, 72 h exposure, MTT, read-out: Average growth-inhibitory activity (IC50)
Procedure: as §1, §2, §3, §4, §5

HCT-116 = test: MTT tetrazolium microculture growth inhibition, HCT-116; conditions: 72 h exposure, read-out: Average growth-inhibitory activity (IC50)
Procedure: as §1, §2, §3, §4, §5

HT-29 = test: MTT tetrazolium microculture growth inhibition, HT-29; conditions: 72 h exposure, read-out: Average growth-inhibitory activity (IC50)
Procedure: as §1, §2, §3, §4, §5

Row | SMILES | IC50 (SK-Hep) | in vitro antitumor activity against SK-Hep (SK-Hep) | IC50 (SK-Hep resistance) | IC50 (Huh-7) | in vitro antitumor activity against Huh-7 cell (Huh-7) | IC50 (Huh-7 resistance) | IC50 [1] | activity against liver cancer cell line PLC/5 [1] | IC50 [2] | activity against colorectal cancer cell line Colo320 [2] | IC50 (L1210) | resistance / cross-resistance of L1210 (L1210 resistance) | IC50 (L1210 resistance) | IC50 (HCT-116) | IC50 (HT-29) | other results
1 | O=C1[O][Pt]2([NH][C@@H]3CCCC[C@H]3[NH]2)[O]C(=O)C2C3CCC(O3)C12 (mixture of isomers) [Trans-DMC platinum complex, Trans-Racemic DMC Platinum Complex] | 4.27 ± 1.03 µM | effective in vitro antitumor activities | 5.01 ± 0.68 µM | 4.47 ± 0.79 µM | effective in vitro antitumor activities | 5.99 ± 0.52 µM | 4.64 ± 1.01 µM | effective activities | 2.54 ± 0.95 µM | more effective | 0.14 ± 0.06 µM | no cross-resistance | 0.17 ± 0.05 µM | 0.81 ± 0.29 µM | 2.09 ± 0.69 µM | cross-resistance of Huh-7 (Huh-7 resistance): no cross-resistance
2 | N.N.O=C([O-])C1(C(=O)[O-])CCC1.[Pt+2] [Carboplatin, reference compound] | 134 ± 10.3 µM | – | 358 ± 28 µM | 117 ± 9.82 µM | – | 176 ± 54 µM | 80.2 ± 15.8 µM | – | 41.7 ± 5.44 µM | – | 12.8 ± 2.14 µM | high resistance | 126 ± 17.2 µM | 69.4 ± 14.7 µM | 134 ± 15 µM | resistance of SK-Hep to the drug (SK-Hep resistance): about 2.7 fold; resistance of Huh-7 to the drug (Huh-7 resistance): 1.5 fold
3 | O=C1[O][Pt]2([NH][C@H]3CCCC[C@H]3[NH]2)[O]C(=O)C2C3CCC(O3)C12 (stereo partly drawn) [Cis-DMC platinum complex] | 19.4 ± 2.23 µM | – | 22.7 ± 1.11 µM | 19 ± 1.46 µM | – | 17.1 ± 0.77 µM | 17.1 ± 1.18 µM | – | 5.98 ± 0.97 µM | – | – | – | – | 12.6 ± 1.67 µM | – | cross-resistance of Huh-7 (Huh-7 resistance): no cross-resistance
4 | N.N.[Cl][Pt][Cl] [Cisplatin, reference compound] | 13.5 ± 1.84 µM | – | 51.8 ± 7.01 µM | 11.7 ± 1.21 µM | – | 25.6 ± 3.5 µM | 6.92 ± 1.46 µM | – | 2.54 ± 0.48 µM | – | 0.82 ± 0.14 µM | high resistance | 14 ± 1.49 µM | 4.14 ± 0.8 µM | 12.1 ± 2.25 µM | resistance of SK-Hep to the drug (SK-Hep resistance): 4 fold; resistance of Huh-7 to the drug (Huh-7 resistance): 1.5 fold
5 | O=C1OC(=O)C2C3CCC(O3)C12 (stereo not shown) [DMC, Demethylcantharidin, reference compound] | – | – | – | – | – | – | – | – | – | – | – | – | – | – | – | IC50 (SK-Hep; SKHep): 19 ± 2.01 µM; IC50 (SK-Hep resistance; SKHep): 25.5 ± 1.69 µM; IC50 (Huh-7; Homo sapiens): 32.9 ± 3.68 µM; IC50 (Huh-7 resistance; Homo sapiens): 26.9 ± 3.03 µM; IC50 ([1]; PLC5): 25.3 ± 1.98 µM; IC50 ([2]; Homo sapiens, COLO 320): 23.9 ± 1.42 µM; IC50 (L1210; Mus musculus): 31.2 ± 1.79 µM; IC50 (L1210 resistance; Mus musculus): 45.5 ± 3.69 µM; IC50 (HCT-116; Homo sapiens): 23.2 ± 2.06 µM; IC50 (HT-29; Homo sapiens): 32.7 ± 2.57 µM
6 | O=C1[O][Pt]2([NH][C@@H]3CCCC[C@H]3[NH]2)[O]C1=O [Oxaliplatin, reference compound] | 9.09 ± 4.24 µM | – | – | 8.97 ± 4.56 µM | – | – | 6.48 ± 3.19 µM | – | 1 ± 0.31 µM | – | – | – | – | – | – | –
7 | O=C1[O][Pt]2([NH][C@@H]3CCCC[C@H]3[NH]2)[O]C(=O)C2C3CCC(O3)C12 (stereo partly drawn) [Trans-R,R(−)-DMC platinum complex, Trans-R,R-(−)-DMC platinum complex] | 6.63 ± 2.21 µM | effective in vitro antitumor activities | 4.7 ± 0.95 µM | 3.65 ± 1.1 µM | effective in vitro antitumor activities | 26.9 ± 6.14 µM | 3.23 ± 1.13 µM | effective activities | 2.45 ± 0.83 µM | more effective | 0.76 ± 0.09 µM | no cross-resistance | 0.99 ± 0.1 µM | 0.45 ± 0.27 µM | 0.92 ± 0.57 µM | –
8 | O=C1[O][Pt]2([NH][C@H]3CCCC[C@@H]3[NH]2)[O]C(=O)C2C3CCC(O3)C12 (stereo partly drawn) [Trans-S,S(+)-DMC platinum complex, Trans-S,S-(+)-DMC platinum complex] | 6.15 ± 1 µM | effective in vitro antitumor activities | 8.09 ± 0.89 µM | 8.46 ± 1.51 µM | effective in vitro antitumor activities | 16.2 ± 2.6 µM | 6.26 ± 1.87 µM | effective activities | 4.96 ± 1.32 µM | more effective | 0.11 ± 0.05 µM | no cross-resistance | 0.12 ± 0.06 µM | 2.04 ± 0.41 µM | 3.07 ± 0.73 µM | –
